According to patent US10251394B2, “Molecules having pesticidal utility, and intermediates, compositions, and processes, related thereto” (Dow AgroSciences LLC, priority 2016, dated 2019):

Assays:
Format in all cases: in vivo
[1] = tested on: Cabbage Looper (Trichoplusia ni); assay: Bioassay on Cabbage Looper (CL), 128-well diet tray assay; settings: Cabbage Looper, Table ABC, read-out: CL rating
In short: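 Second-instar larvae, one to five per well, placed on artificial diet surface-treated with 50 μg/cm^2 compound in acetone-water, eight wells per compound. Held 5-7 days at 25° C, 14:10 light-dark; percent mortality per well averaged across wells.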

[2] = tested on: Beet Armyworm (Spodoptera exigua); assay: Bioassay on Beet Armyworm (BAW), 128-well diet tray assay; settings: Beet Armyworm, Table ABC, read-out: BAW rating
In short: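 Second-instar larvae (one to five per well) placed on artificial diet surface-treated with 50 μg/cm^2 test molecule in 90:10 acetone-water, dried, eight wells per molecule. Held at 25° C, 14:10 light-dark, five to seven days; percent mortality recorded per well and averaged across the eight wells.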

[3] = tested on: Yellow Fever Mosquito (Aedes aegypti); assay: Bioassay on Yellow Fever Mosquito (YFM) larvae, 96-well plate; settings: Table ABC
Method: Example C: Bioassays on Yellow Fever Mosquito (Aedes Aegypti, AEDSAE) (“YFM”)
Certain molecules disclosed in this document were tested against YFM using procedures described in the following paragraph. In the reporting of the results, the “GPA & YFM Rating Table” was used (See Table Section).
Master plates containing 400 μg of a molecule dissolved in 100 μL of dimethyl sulfoxide (DMSO) (equivalent to a 4000 ppm solution) are used. A master plate of assembled molecules contains 15 μL per well. To this plate, 135 μL of a 90:10 water:acetone mixture is added to each well. A robot (Biomek® NXP Laboratory Automation Workstation) is programmed to dispense 15 μL aspirations from the master plate into an empty 96-well shallow plate (“daughter” plate). There are 6 reps (“daughter” plates) created per master. The created daughter plates are then immediately infested with YFM larvae.
The day before plates are to be treated, mosquito eggs are placed in Millipore water containing liver powder to begin hatching (4 g. into 400 mL). After the daughter plates are created using the robot, they are infested with 220 μL of the liver powder/larval mosquito mixture (about 1 day-old larvae). After plates are infested with mosquito larvae, a non-evaporative lid is used to cover the plate to reduce drying. Plates are held at room temperature for 3 days prior to grading. After 3 days, each well is observed and scored based on mortality. The results are indicated in the table entitled “Table ABC: Biological Results” (See Table Section).

Compound	pest or weed control at 50 µg/cm2 [1] [%]	pest or weed control at 50 µg/cm2 [2] [%]	YFM rating [3]
O=C(CNC(=O)c1ccc(/C(F)=C/C(c2cc(Cl)c(F)c(Cl)c2)C(F)(F)F)cc1C(F)(F)F)NCC(F)(F)F (stereo not drawn) [F38, (Z)-4-(3-(3,5-Dichloro-4-fluorophenyl)-1,4,4,4-tetrafluorobut-1-en-1-yl)-N-(2-oxo-2-((2,2,2-trifluoroethyl)amino)ethyl)-2-(trifluoromethyl)benzamide]	50 to 100	50 to 100	A (80-100)
O=C(NC1(C(=O)NCC(F)(F)F)CC1)c1ccc(/C(F)=C/C(c2cc(Cl)cc(Cl)c2)C(F)(F)F)cc1C(F)(F)F (stereo not drawn) [F39, (Z)-4-(3-(3,5-Dichlorophenyl)-1,4,4,4-tetrafluorobut-1-en-1-yl)-N-(1-((2,2,2-trifluoroethyl)carbamoyl)cyclopropyl)-2-(trifluoromethyl)benzamide]	50 to 100	50 to 100	A (80-100)
O=C(CNC(=O)c1ccc(/C(F)=C/C(c2cc(Cl)cc(Cl)c2)C(F)(F)F)cc1C(F)(F)F)NCC(F)(F)F (stereo not drawn) [F40, (Z)-4-(3-(3,5-Dichlorophenyl)-1,4,4,4-tetrafluorobut-1-en-1-yl)-N-(2-oxo-2-((2,2,2-trifluoroethyl)amino)ethyl)-2-(trifluoromethyl)benzamide]	50 to 100	50 to 100	A (80-100)
O=C(NC1(C(=O)NCC(F)(F)F)CC1)c1ccc(/C(F)=C/C(c2ccc(Cl)c(Cl)c2)C(F)(F)F)cc1C(F)(F)F (stereo not drawn) [F41, (Z)-4-(3-(3,4-Dichlorophenyl)-1,4,4,4-tetrafluorobut-1-en-1-yl)-N-(1-((2,2,2-trifluoroethyl)carbamoyl)cyclopropyl)-2-(trifluoromethyl)benzamide]	50 to 100	50 to 100	A (80-100)
C[C@@H](NC(=O)c1ccc(/C(F)=C/C(c2ccc(Cl)c(Cl)c2)C(F)(F)F)cc1C(F)(F)F)C(=O)NCC(F)(F)F (stereo partly drawn) [F42, 4-((Z)-3-(3,4-Dichlorophenyl)-1,4,4,4-tetrafluorobut-1-en-1-yl)-N—((R)-1-oxo-1-((2,2,2-trifluoroethyl)amino)propan-2-yl)-2-(trifluoromethyl)benzamide]	50 to 100	50 to 100	A (80-100)
O=C(CNC(=O)c1ccc(/C(F)=C/C(c2ccc(Cl)c(Cl)c2)C(F)(F)F)cc1C(F)(F)F)NCC(F)(F)F (stereo not drawn) [F43, (Z)-4-(3-(3,4-Dichlorophenyl)-1,4,4,4-tetrafluorobut-1-en-1-yl)-N-(2-oxo-2-((2,2,2-trifluoroethyl)amino)ethyl)-2-(trifluoromethyl)benzamide]	50 to 100	50 to 100	A (80-100)
C[C@@H](NC(=O)c1ccc(/C(F)=C/C(c2cc(Br)c(Cl)c(Br)c2)C(F)(F)F)cc1C(F)(F)F)C(=O)NCC(F)(F)F (stereo partly drawn) [F44, 4-((Z)-3-(3,5-Dibromo-4-chlorophenyl)-1,4,4,4-tetrafluorobut-1-en-1-yl)-N—((R)-1-oxo-1-((2,2,2-trifluoroethyl)amino)propan-2-yl)-2-(trifluoromethyl)benzamide]	50 to 100	50 to 100	A (80-100)
O=C(NC1(C(=O)NCC(F)(F)F)CC1)c1ccc(/C(F)=C/C(c2cc(Br)c(Cl)c(Br)c2)C(F)(F)F)cc1C(F)(F)F (stereo not drawn) [F45, (Z)-4-(3-(3,5-Dibromo-4-chlorophenyl)-1,4,4,4-tetrafluorobut-1-en-1-yl)-N-(1-((2,2,2-trifluoroethyl)carbamoyl)cyclopropyl)-2-(trifluoromethyl)benzamide]	50 to 100	50 to 100	A (80-100)
